Data: patent US9586962B2, “Disubstituted octahydropyrrolo [3,4-C] pyrroles as orexin receptor modulators” (Janssen Pharmaceutica NV, priority 2011, dated 2017)

biological target: human orexin 2 receptor (Homo sapiens (Human), UniProt O43614); test: Human orexin 2 receptor Ca2+ mobilization assay (FLIPR, PFSK cells, orexin B 100 nM); format: cell-based; conditions: modified Cheng-Prusoff correction, read-out: OR 2 Kb
Method: Human Orexin 2 Receptor Ca^2+ Mobilization Assay
Cells were seeded on to 96-well Packard viewplates at a density of 50,000 cells/well and incubated overnight at 37° C., 5% CO2. The cells were dye-loaded with 4 μM Ca^2+ dye Fluo-3AM in serum-free DMEM/F-12 with 2.5 mM probenecid and incubated at 37° C., 5% CO2 for one hour. Cells were pre-incubated with compounds (diluted in DMEM/F-12) for 30 minutes before agonist (orexin B, 100 nM) stimulation. Ligand-induced Ca^2+ release was measured using a Fluorometric Imaging Plate Reader (FLIPR, Molecular Devices, Sunnyvale, Calif.). Functional responses were measured as peak fluorescence intensity minus basal. The concentration of agonist that produced a half-maximal response is represented by the EC50 value. Antagonistic potency values were converted to apparent pKB values using a modified Cheng-Prusoff correction. Apparent pKB=−log IC50/1+[conc agonist/EC50]. Data are expressed as mean±S.E.M, the designation of NT means not tested.

Sequence of human orexin 2 receptor (O43614 whole entry): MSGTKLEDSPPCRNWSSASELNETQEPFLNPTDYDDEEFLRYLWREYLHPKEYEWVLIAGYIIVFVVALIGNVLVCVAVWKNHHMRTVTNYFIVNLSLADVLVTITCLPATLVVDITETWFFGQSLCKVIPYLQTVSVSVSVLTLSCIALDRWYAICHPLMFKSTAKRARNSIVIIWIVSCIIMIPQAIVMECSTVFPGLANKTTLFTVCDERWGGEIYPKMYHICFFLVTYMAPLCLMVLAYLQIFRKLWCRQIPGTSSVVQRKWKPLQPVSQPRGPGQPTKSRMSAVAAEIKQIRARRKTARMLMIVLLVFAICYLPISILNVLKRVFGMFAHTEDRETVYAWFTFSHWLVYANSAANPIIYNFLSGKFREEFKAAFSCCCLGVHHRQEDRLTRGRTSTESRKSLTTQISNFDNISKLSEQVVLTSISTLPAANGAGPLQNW

| SMILES | Kb |
| --- | --- |
| Cc1ccc(-n2nccn2)c(C(=O)N2CC3CN(c4nc(C)cnc4C)CC3C2)c1 (centres unmarked) [Example 123, [5-(3,6-Dimethyl-pyrazin-2-yl)-hexahydro-pyrrolo[3,4-c]pyrrol-2-yl]-(5-methyl-2-[1,2,3]triazol-2-yl-phenyl)-methanone] | 79 nM |
| CCOc1ccc2ccccc2c1C(=O)N1CC2CN(c3nccc(-c4ccccc4)n3)CC2C1 (centres unmarked) [Example 126, 2-[(2-Ethoxynaphthalen-1-yl)carbonyl]-5-(4-phenylpyrimidin-2-yl)octahydro pyrrolo[3,4-c]pyrrole] | 100 nM |
| Cc1ccc(-n2nccn2)c(C(=O)N2CC3CN(c4nccc(-c5ccccc5)n4)CC3C2)c1 (centres unmarked) [Example 127, 2-{[5-Methyl-2-(2H-1,2,3-triazol-2-yl)phenyl]carbonyl}-5-(4-phenylpyrimidin-2-yl)octahydropyrrolo[3,4-c]pyrrole] | 20 nM |
| COc1cc(OC)nc(N2CC3CN(C(=O)c4cc(C)ccc4-n4nccn4)CC3C2)n1 (centres unmarked) [Example 129, 2-(4,6-Dimethoxypyrimidin-2-yl)-5-{[5-methyl-2-(2H-1,2,3-triazol-2-yl)phenyl]carbonyl}octahydropyrrolo[3,4-c]pyrrole] | 100 nM |
| O=C(c1ccccc1-n1nccn1)N1CC2CN(c3nccc(-c4ccccc4)n3)CC2C1 (centres unmarked) [Example 131, 2-(4-Phenylpyrimidin-2-yl)-5-{[2-(2H-1,2,3-triazol-2-yl)phenyl]carbonyl}octahydro pyrrolo[3,4-c]pyrrole] | 79 nM |
| Cc1cc(C)nc(N2CC3CN(C(=O)c4nc(C)sc4-c4ccccc4F)CC3C2)n1 (centres unmarked) [Example 132, 2-(4,6-Dimethylpyrimidin-2-yl)-5-{[5-(2-fluorophenyl)-2-methyl-1,3-thiazol-4-yl]carbonyl}octahydropyrrolo[3,4-c]pyrrole] | 79 nM |
| Cc1cccc(N2CC3CN(C(=O)c4ccccc4-c4cccs4)CC3C2)n1 (centres unmarked) [Example 134, 2-(6-Methylpyridin-2-yl)-5-[(2-thiophen-2-ylphenyl)carbonyl]octahydropyrrolo[3,4-c]pyrrole] | 12 nM |
| Cc1ccnc(N2CC3CN(C(=O)c4ccccc4-n4nccn4)CC3C2)n1 (centres unmarked) [Example 135, 2-(4-Methylpyrimidin-2-yl)-5-{[2-(2H-1,2,3-triazol-2-yl)phenyl]carbonyl}octahydro pyrrolo[3,4-c]pyrrole] | 40 nM |
| Cc1ccnc(N2CC3CN(C(=O)c4ccccc4-c4cccs4)CC3C2)c1 (centres unmarked) [Example 136, 2-(4-Methylpyridin-2-yl)-5-[(2-thiophen-2-ylphenyl)carbonyl]octahydropyrrolo[3,4-c]pyrrole] | 50 nM |
| COc1cccc(N2CC3CN(C(=O)c4ccccc4-c4cccs4)CC3C2)n1 (centres unmarked) [Example 137, 2-(6-Methoxypyridin-2-yl)-5-[(2-thiophen-2-ylphenyl)carbonyl]octahydro pyrrolo[3,4-c]pyrrole] | 25 nM |
| COc1cc(OC)nc(N2CC3CN(C(=O)c4ccccc4-c4cccs4)CC3C2)n1 (centres unmarked) [Example 138, 2-(4,6-Dimethoxypyrimidin-2-yl)-5-[(2-thiophen-2-ylphenyl)carbonyl]octahydro pyrrolo[3,4-c]pyrrole] | 40 nM |
| O=C(c1ccccc1-c1cccs1)N1CC2CN(c3nc4ccccc4o3)CC2C1 (centres unmarked) [Example 139, 2-{5-[(2-Thiophen-2-ylphenyl)carbonyl]hexahydropyrrolo[3,4-c]pyrrol-2(1H)-yl}-1,3-benzoxazole] | 63 nM |
| O=C(c1ccccc1-n1nccn1)N1CC2CN(c3nccc(-c4cccs4)n3)CC2C1 (centres unmarked) [Example 143, 2-(4-Thiophen-2-ylpyrimidin-2-yl)-5-{[2-(2H-1,2,3-triazol-2-yl)phenyl]carbonyl}octahydropyrrolo[3,4-c]pyrrole] | 79 nM |
| O=C(c1ccccc1-n1nccn1)N1CC2CN(c3nc4ccccc4o3)CC2C1 (centres unmarked) [Example 144, 2-[5-{[2-(2H-1,2,3-Triazol-2-yl)phenyl]carbonyl}hexahydropyrrolo[3,4-c]pyrrol-2(1H)-yl]-1,3-benzoxazole] | 63 nM |
| CCOc1ccc2ccccc2c1C(=O)N1CC2CN(c3cnc4ccccc4n3)CC2C1 (centres unmarked) [Example 145, 2-{5-[(2-Ethoxynaphthalen-1-yl)carbonyl]hexahydropyrrolo[3,4-c]pyrrol-2(1H)-yl}quinoxaline] | 32 nM |
| O=C(c1cc(F)ccc1-c1ncccn1)N1CC2CN(c3cnc4ccccc4n3)CC2C1 (centres unmarked) [Example 146, 2-{5-[(5-Fluoro-2-pyrimidin-2-ylphenyl)carbonyl]hexahydropyrrolo[3,4-c]pyrrol-2(1H)-yl}quinoxaline] | 16 nM |
| CCOc1cccc(N2CC3CN(C(=O)c4ccccc4-n4nccn4)CC3C2)n1 (centres unmarked) [Example 147, 2-(6-Ethoxypyridin-2-yl)-5-{[2-(2H-1,2,3-triazol-2-yl)phenyl]carbonyl}octahydro pyrrolo[3,4-c]pyrrole] | 63 nM |
| COc1ccnc(N2CC3CN(C(=O)c4cc(F)ccc4-c4ncccn4)CC3C2)n1 (centres unmarked) [Example 150, 2-[(5-Fluoro-2-pyrimidin-2-ylphenyl)carbonyl]-5-(4-methoxypyrimidin-2-yl)octahydropyrrolo[3,4-c]pyrrole] | 40 nM |
| O=C(c1ccccc1-n1nccn1)N1CC2CN(c3nccc(C(F)(F)F)n3)CC2C1 (centres unmarked) [Example 153, 2-{[2-(2H-1,2,3-Triazol-2-yl)phenyl]carbonyl}-5-[4-(trifluoromethyl)pyrimidin-2-yl]octahydropyrrolo[3,4-c]pyrrole] | 40 nM |
| Cc1cnc(C)c(N2CC3CN(C(=O)c4ccccc4-n4nccn4)CC3C2)n1 (centres unmarked) [Example 155, 2-(3,6-Dimethylpyrazin-2-yl)-5-{[2-(2H-1,2,3-triazol-2-yl)phenyl]carbonyl}octa hydropyrrolo[3,4-c]pyrrole] | 16 nM |
| COc1ccnc(N2CC3CN(C(=O)c4ccccc4-n4nccn4)CC3C2)n1 (centres unmarked) [Example 156, 2-(4-Methoxypyrimidin-2-yl)-5-{[2-(2H-1,2,3-triazol-2-yl)phenyl]carbonyl}octa hydropyrrolo[3,4-c]pyrrole] | 16 nM |
| Cc1cncc(N2CC3CN(C(=O)c4ccc(F)cc4-n4nccn4)CC3C2)n1 (centres unmarked) [Example 158, 2-{[4-Fluoro-2-(2H-1,2,3-triazol-2-yl)phenyl]carbonyl}-5-(6-methylpyrazin-2-yl)octahydropyrrolo[3,4-c]pyrrole] | 8 nM |
| COc1ccnc(N2CC3CN(C(=O)c4ccc(F)cc4-n4nccn4)CC3C2)n1 (centres unmarked) [Example 159, 2-{[4-Fluoro-2-(2H-1,2,3-triazol-2-yl)phenyl]carbonyl}-5-(4-methoxypyrimidin-2-yl)octahydropyrrolo[3,4-c]pyrrole] | 8 nM |
| COc1cc(OC)nc(N2CC3CN(C(=O)c4ccc(F)cc4-n4nccn4)CC3C2)n1 (centres unmarked) [Example 160, 2-(4,6-Dimethoxypyrimidin-2-yl)-5-{[4-fluoro-2-(2H-1,2,3-triazol-2-yl)phenyl]carbonyl}octahydropyrrolo[3,4-c]pyrrole] | 20 nM |
| COc1ccc(C(=O)N2CC3CN(c4nc5ccc(Cl)cc5s4)CC3C2)c(OC)c1 (centres unmarked) [Example 163, 6-Chloro-2-{5-[(2,4-dimethoxyphenyl)carbonyl]hexahydropyrrolo[3,4-c]pyrrol-2(1H)-yl}-1,3-benzothiazole] | 501 nM |
| O=C(c1ccccc1-c1ccccc1)N1CC2CN(c3nccc(-c4ccccc4)n3)CC2C1 (centres unmarked) [Example 164, 2-(Biphenyl-2-ylcarbonyl)-5-(4-phenylpyrimidin-2-yl)octahydropyrrolo[3,4-c]pyrrole] | 200 nM |
